In patent US20210400977A1, “META-DIAMIDE COMPOUNDS FOR CONTROLLING INVERTEBRATE PESTS” (FMC Corporation, priority 2018, published 2021):

Experiments:
[1] = test system: cotton melon aphid (Aphis gossypii (Glover)); assay: Test F: control of cotton melon aphid through contact and/or systemic means; assay type: in vivo; conditions: 144 h, assessed after 6 days; for mortality at 50 ppm: sprayed at 50 ppm; for mortality at 250 ppm: sprayed at 250 ppm
[2] = test system: sweetpotato whitefly (Bemisia tabaci (Gennadius)); assay: Test G: control of sweetpotato whitefly through contact and/or systemic means; assay type: in vivo; conditions: 312 h, assessed after 13 days; for mortality at 50 ppm: sprayed at 50 ppm; for mortality at 250 ppm: sprayed at 250 ppm
Experimental: (§1) Test compounds were formulated using a solution containing 10% acetone, 90% water and 300 ppm Activator 90® non-ionic surfactant (Loveland Products, Loveland, Colo., USA). The formulated compounds were applied in 1 mL of liquid through an atomizer nozzle positioned 1.27 cm (0.5 inches) above the top of each test unit. Test compounds were sprayed at the rates indicated, and each test was replicated three times.
For evaluating control of the sweetpotato whitefly (Bemisia tabaci (Gennadius)) through contact and/or systemic means, the test unit consisted of a small open container with a 12-14-day-old cotton plant or 7-9-day-old soybean plant inside. Prior to the spray application, both cotyledons were removed from the plant, leaving one true leaf for the assay. Adult whiteflies were allowed to lay eggs on the plant and then were removed from the test unit. Cotton or soybean plants infested with at least 15 eggs were submitted to the test for spraying.
Test compounds were formulated and sprayed at 250 and/or 50 ppm. After spraying, the test units were allowed to dry for 1 hour. The cylinders were then removed, and the units were taken to a growth chamber and held for 13 days at 28° C. and 50-70% relative humidity. Each test unit was then visually assessed for insect mortality.

[3] = test system: potato leafhopper (Empoasca fabae (Harris)); assay: Test D: control of potato leafhopper through contact and/or systemic means; assay type: in vivo; conditions: 144 h, assessed after 6 days; for mortality at 50 ppm: sprayed at 50 ppm; for mortality at 250 ppm: sprayed at 250 ppm
Experimental: as §1
For evaluating control of potato leafhopper (Empoasca fabae (Harris)) through contact and/or systemic means, the test unit consisted of a small open container with a 5-6-day-old Soleil bean plant (primary leaves emerged) inside. White sand was added to the top of the soil, and one of the primary leaves was excised prior to application of the test compound.
Test compounds were formulated and sprayed at 250 and/or 50 ppm. After spraying of the formulated test compound, the test units were allowed to dry for 1 hour before they were post-infested with 5 potato leafhoppers (18-to-21-day-old adults). A black, screened cap was placed on the top of the test unit, and the test units were held for 6 days in a growth chamber at 20° C. and 70% relative humidity. Each test unit was then visually assessed for insect mortality.

[4] = test system: green peach aphid (Myzus persicae (Sulzer)); assay: Test E: control of green peach aphid through contact and/or systemic means; assay type: in vivo; conditions: 144 h, assessed after 6 days; for mortality at 50 ppm: sprayed at 50 ppm; for mortality at 250 ppm: sprayed at 250 ppm
Experimental: as §1
For evaluating control of green peach aphid (Myzus persicae (Sulzer)) through contact and/or systemic means, the test unit consisted of a small open container with a 12-15-day-old radish plant inside. This was pre-infested by placing on a leaf of the test plant 30-40 aphids on a piece of leaf excised from a culture plant (cut-leaf method). The aphids moved onto the test plant as the leaf piece desiccated. After pre-infestation, the soil of the test unit was covered with a layer of sand.
Test compounds were formulated and sprayed at 250 and/or 50 ppm. After spraying of the formulated test compound, each test unit was allowed to dry for 1 hour and then a black, screened cap was placed on top. The test units were held for 6 days in a growth chamber at 19-21° C. and 50-70% relative humidity. Each test unit was then visually assessed for insect mortality.

melting point [°C]	Compound	mortality at 50 ppm [1] [%]	mortality at 50 ppm [2] [%]	mortality at 250 ppm [2] [%]	mortality at 50 ppm [3] [%]	mortality at 50 ppm [4] [%]	mortality at 250 ppm [1] [%]	mortality at 250 ppm [3] [%]	mortality at 250 ppm [4] [%]
	O=C(CC(F)(F)F)NCc1cc(NC(=O)C2C(c3cc(F)cc(Cl)c3)C2(Cl)Cl)ccc1F (stereo not drawn) [Compound 129, 2,2-dichloro-3-(3-chloro-5-fluorophenyl)-N-[4-fluoro-3-[[(3,3,3-trifluoro-1-oxopropyl)amino]methyl]phenyl]cyclopropanecarboxamide]	≥ 80	≥ 70	≥ 70	≥ 80	≥ 80			
	CCC(=O)NCc1cc(NC(=O)C2C(c3cc(Cl)cc(Cl)c3)C2(Cl)Cl)ccc1Cl (stereo not drawn) [Compound 147]	≥ 80	≥ 70	≥ 70	≥ 80	≥ 80	≥ 80	≥ 80	≥ 80
	CCC(=O)NC(C)c1cc(NC(=O)C2C(c3cc(Cl)cc(Cl)c3)C2(Cl)Cl)ccc1Cl (stereo not drawn) [Compound 86]				≥ 80				
	O=C(CC(F)(F)F)NCc1cc(NC(=O)C2C(c3ccc(F)c(C(F)(F)F)c3)C2(Cl)Cl)ccc1Cl (stereo not drawn) [Compound 116, 2,2-dichloro-N-[4-chloro-3-[[(3,3,3-trifluoro-1-oxopropyl)amino]methyl]phenyl]-3-[4-fluoro-3-(trifluoromethyl)phenyl]cyclopropanecarboxamide]				≥ 80				
	O=C(NCc1cc(NC(=O)C2C(c3cc(Cl)cc(Cl)c3)C2(Cl)Cl)ccc1Cl)C1CC1 (stereo not drawn) [Compound 62, 2,2-dichloro-N-[4-chloro-3-[(cyclopropanecarbonylamino)methyl]phenyl]-3-(3,5-dichlorophenyl)cyclopropane-1-carboxamide]	≥ 80		≥ 70	≥ 80	≥ 80	≥ 80	≥ 80	≥ 80
	O=C(CC(F)(F)F)NCc1cc(NC(=O)C2C(c3ccc(F)c(C(F)(F)F)c3)C2(Cl)Cl)ccc1F (stereo not drawn) [Compound 78, 2,2-dichloro-3-[4-fluoro-3-(trifuoromethyl)phenyl]-N-[4-fluoro-3-[[(3,3,3-trifluoro-1-oxopropyl)amino]methyl]phenyl]cyclopropanecarboxamide]	≥ 80	≥ 70		≥ 80	≥ 80			
152 to 155	O=C(NCc1nc(NC(=O)C2C(c3ccc(F)c(Cl)c3)C2(Cl)Cl)ccc1Br)C1CC1 (stereo not drawn) [Compound 254]								
	CC(=O)NCc1cc(NC(=O)C2C(c3cc(Cl)cc(Cl)c3)C2(F)F)ccc1Cl (stereo not drawn) [Compound 47]	≥ 80			≥ 80		≥ 80	≥ 80	≥ 80
	O=C(Nc1ccc(Cl)c(CNC(=O)C(F)(F)F)c1)C1C(c2ccc(F)c(C(F)(F)F)c2)C1(Cl)Cl (stereo not drawn) [Compound 174, 2,2-dichloro-N-[4-chloro-3-[[(2,2,2-trifluoroacetyl)amino]methyl]phenyl]-3-[4-fluoro-3-(trifluoromethyl)phenyl]cyclopropanecarboxamide]	≥ 80		≥ 70	≥ 80	≥ 80			
	O=C(CC(F)(F)F)NCc1cc(NC(=O)C2C(c3ccc(Cl)c(Cl)c3)C2(Cl)Cl)ccc1F (stereo not drawn) [Compound 79, 2,2-dichloro-3-(3,4-dichlorophenyl)-N-[4-fluoro-3-[[(3,3,3-trifluoro-1-oxopropyl)amino]methyl]phenyl]cyclopropanecarboxa-mide]	≥ 80		≥ 70	≥ 80				
	O=C(CC(F)(F)F)NCc1c(F)ccc(NC(=O)C2C(c3ccc(F)c(Cl)c3)C2(Cl)Cl)c1F (stereo not drawn) [Compound 170, 2,2-dichloro-3-(3-chloro-4-fluorophenyl)-N-[2,4-difluoro-3-[[(3,3,3-trifluoro-1-oxopropyl)amino]methyl]phenyl]cyclopropanecarboxamide]	≥ 80			≥ 80	≥ 80			
	O=C(Nc1ccc(Cl)c(CNC(=O)C(F)(F)F)c1)C1C(c2ccc(F)c(Cl)c2)C1(Cl)Cl (stereo not drawn) [Compound 19, 2,2-dichloro-3-(3-chloro-4-fluorophenyl)-N-[4-chloro-3-[[(2,2,2-trifluoroacetyl)amino]methyl]phenyl]cyclopropanecarboxamide]	≥ 80	≥ 70	≥ 70	≥ 80	≥ 80	≥ 80	≥ 80	≥ 80
	O=C(NCc1cc(NC(=O)C2C(c3cc(Cl)cc(Cl)c3)C2(F)F)ccc1Cl)C1CC1 (stereo not drawn) [Compound 48]				≥ 80		≥ 80	≥ 80	
	O=C(NCc1cc(NC(=O)C2C(c3cc(Cl)cc(Cl)c3)C2(Cl)Cl)ccc1Cl)C1CC1 (stereo not drawn) [Compound 148]		≥ 70						
170 to 173	CC(=O)NCc1nc(NC(=O)C2C(c3ccc(F)c(Cl)c3)C2(Cl)Cl)ccc1Br (stereo not drawn) [Compound 247]								
	O=C(NCc1cc(NC(=O)C2C(c3ccc(F)c(C(F)(F)F)c3)C2(Cl)Cl)ccc1Cl)C1CC1 (stereo not drawn) [Compound 39, 2,2-dichloro-N-[4-chloro-3-[[(cyclopropylcarbonyl)amino]methyl]phenyl]-3-[4-fluoro-3-(trifluoromethyl)phenyl]cyclopropanecarboxamide]	≥ 80	≥ 70	≥ 70	≥ 80	≥ 80	≥ 80	≥ 80	≥ 80
	O=C(NCc1c(F)ccc(NC(=O)C2C(c3ccc(F)c(Cl)c3)C2(Cl)Cl)c1F)C1CC1 (stereo not drawn) [Compound 164, 2,2-dichloro-3-(3-chloro-4-fluorophenyl)-N-[3-[[(cyclopropylcarbonyl)amino]methyl]-2,4-difluorophenyl]cyclopropanecarboxamide]				≥ 80				
	CCC(=O)NCc1cc(NC(=O)C2C(c3cc(Cl)cc(Cl)c3)C2(Cl)Cl)ccc1F (stereo not drawn) [Compound 55, 2,2-dichloro-3-(3,5-dichlorophenyl)-N-[4-fluoro-3-[(propanoylamino)methyl]phenyl]cyclopropane-1-carboxamide]	≥ 80			≥ 80	≥ 80	≥ 80	≥ 80	≥ 80
	O=C(Nc1ccc(Cl)c(CNC(=O)C(F)(F)F)c1)C1C(c2ccc(Cl)c(Cl)c2)C1(Cl)Cl (stereo not drawn) [Compound 175, 2,2-dichloro-N-[4-chloro-3-[[(2,2,2-trifluoroacetyl)amino]methyl]phenyl]-3-(3,4-dichlorophenyl)cyclopropanecarboxamide]	≥ 80			≥ 80	≥ 80			
	O=C(CC(F)(F)F)NCc1cc(NC(=O)C2C(c3cc(F)c(Cl)c(F)c3)C2(Cl)Cl)ccc1F (stereo not drawn) [Compound 169, 2,2-dichloro-3-(4-chloro-3,5-difluorophenyl)-N-[4-fluoro-3-[[(3,3,3-trifluoro-1-oxopropyl)amino]methyl]phenyl]cyclopropanecarboxamide]	≥ 80			≥ 80	≥ 80			
	CC(NC(=O)C1CC1)c1cc(NC(=O)C2C(c3cc(Cl)cc(Cl)c3)C2(Cl)Cl)ccc1Cl (stereo not drawn) [Compound 87]				≥ 80				
	O=C(NCc1cc(NC(=O)C2C(c3ccc(F)c(C(F)(F)F)c3)C2(Cl)Cl)ccc1F)C1CC1 (stereo not drawn) [Compound 77, 2,2-dichloro-N-[3-[[(cyclopropylcarbonyl)amino]methyl]-4-fluorophenyl]-3-[4-fluoro-3-(trifluoromethyl)phenyl]cyclopropanecarboxamide]	≥ 80	≥ 70	≥ 70	≥ 80	≥ 80			
	O=C(CC(F)(F)F)NCc1cc(NC(=O)C2C(c3cc(F)c(F)c(F)c3)C2(Cl)Cl)ccc1Cl (stereo not drawn) [Compound 118, 2,2-dichloro-N-[4-chloro-3-[[(3,3,3-trifluoro-1-oxopropyl)amino]methyl]phenyl]-3-(3,4,5-trifluorophenyl)cyclopropanecarboxamide]			≥ 70	≥ 80				
